Assays:
[1] = target: T1, α4β2 subtype of nicotinic acetylcholine receptors (Rattus norvegicus, UniProt P09483+P12390); experiment: Binding assay at α4β2 subtype of nicotinic acetylcholine receptors ([3H]-cytisine, rat brain membrane); details: for control % of [3H]-cytisine binding at 1 μM of test compound: 1 μM test compound; for control % of [3H]-cytisine binding at 1 μM of test compound / control % of [3H]-cytisine binding at 10 μM of test compound: % of control binding remaining; for control % of [3H]-cytisine binding at 10 μM of test compound: 10 μM test compound
T1 construct: examined using rat brain membrane obtained from whole homogenized brain; from tissue; host or cells: whole brain membranes of Fischer-344 male rats
T1 sequence (P09483 31-630): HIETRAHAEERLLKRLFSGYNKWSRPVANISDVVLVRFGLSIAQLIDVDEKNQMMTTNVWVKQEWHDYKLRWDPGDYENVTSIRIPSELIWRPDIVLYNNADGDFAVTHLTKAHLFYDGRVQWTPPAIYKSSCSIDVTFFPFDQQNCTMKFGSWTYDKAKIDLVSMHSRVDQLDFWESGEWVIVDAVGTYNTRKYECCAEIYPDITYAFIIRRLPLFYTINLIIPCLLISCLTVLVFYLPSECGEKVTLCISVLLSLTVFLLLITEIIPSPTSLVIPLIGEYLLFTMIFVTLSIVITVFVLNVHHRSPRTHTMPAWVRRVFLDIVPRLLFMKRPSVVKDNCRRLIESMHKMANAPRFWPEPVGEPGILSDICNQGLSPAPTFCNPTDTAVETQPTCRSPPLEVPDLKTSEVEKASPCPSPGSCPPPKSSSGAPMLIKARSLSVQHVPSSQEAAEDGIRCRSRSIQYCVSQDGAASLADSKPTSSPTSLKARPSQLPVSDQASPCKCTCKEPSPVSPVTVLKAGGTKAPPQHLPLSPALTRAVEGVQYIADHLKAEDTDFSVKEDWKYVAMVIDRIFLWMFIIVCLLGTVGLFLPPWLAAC
T1 sequence (P12390 25-500): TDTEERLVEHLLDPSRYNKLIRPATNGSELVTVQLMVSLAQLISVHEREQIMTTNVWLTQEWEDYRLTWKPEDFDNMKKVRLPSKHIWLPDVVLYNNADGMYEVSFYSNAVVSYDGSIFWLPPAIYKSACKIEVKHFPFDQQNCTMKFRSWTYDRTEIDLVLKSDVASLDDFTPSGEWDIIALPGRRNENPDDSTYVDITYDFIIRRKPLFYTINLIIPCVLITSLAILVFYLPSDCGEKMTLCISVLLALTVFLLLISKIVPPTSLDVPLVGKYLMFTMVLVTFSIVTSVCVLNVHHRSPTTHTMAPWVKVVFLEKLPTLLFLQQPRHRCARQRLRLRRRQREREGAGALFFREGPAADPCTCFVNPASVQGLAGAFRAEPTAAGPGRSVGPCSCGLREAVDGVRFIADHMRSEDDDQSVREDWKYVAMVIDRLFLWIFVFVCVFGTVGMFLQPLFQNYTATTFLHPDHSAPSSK
Excerpt: (§1) The methods for evaluating the binding capabilities of the compounds against nicotinic acetylcholine receptors are different by subtypes of receptors. The binding capabilities of the compounds at α4β2 nicotinic acetylcholine receptors are examined using rat brain membrane obtained from whole homogenized brain, and determining the inhibiting rate of the compounds against [^3H]-cytisine binding to said brain membrane. Furthermore, the binding capabilities of the compounds at α1β1γδ nicotinic acetylcholine receptors are examined using homogenized rat muscle, and determining the inhibiting rate of the compounds against [^3H]-α-bungarotoxin binding to said muscle membrane.
Binding Assays at α4β2 Subtype of Nicotinic Acetylcholine Receptors
The affinity of the compounds of the present invention to α4β2 subunit of nicotinic acetylcholine receptors was performed by the following method, which was modified method described by Pabreza L. A., Dhawan S. & Kellar K. J., Mol. Pharm., 39, 9-12 (1990), and by Anderson D. J. & Arneric S. P., Eur. J. Pharm., 253, 261-267 (1994).
(1) Preparation of Rat Brain Membrane Containing α4β2 subtype of Nicotinic Acetylcholine Receptors
Fischer-344 strain male rats (body weight: 200-240 g; 9 weeks old) obtained from Charles River Japan were used. Rats were housed in the breeding cage controlled of the room temperature at 23±1° C., and the humidity of 55±5% for 1 to 4 weeks. Rats (3 to 4 rats per a cage) were housed with lights on for 12 hours daily (from 7:00 to 19:00), and allowed free access to food and water.
Preparation of rat brain membrane containing α4β2 subtype of nicotinic acetylcholine receptors was performed as follow. That is, rat brains were isolated just after sacrificed by decapitation, washed with ice-cooled saline solution and then frozen at −80° C. with liquid nitrogen and stored till using. After thawing the frozen brain, the brain was homogenized in 10 volumes of buffer solution (50 mM of Tris-HCl, 120 mM of NaCl, 5 mM of KCl, 1 mM of MgCl2, 2mM of CaCl2; pH 7.4; 4° C.) using homogenizer (HG30, Hitachi Kohki Ltd.) for 30 seconds, and the homogenate were centrifuged under 1,000×G for 10 minutes at 4° C. The resulting supernatant was separated and the pellet was homogenized again with half volume of aforementioned prior buffer solution and centrifuged under the same conditions. Combined supernatant was further centrifuged under 40,000×G for 20 minutes at 4° C. The pellet was suspended in buffer solution and used for binding assays at receptors.
(2) Experiments of α4β2 Subtype of Nicotinic Acetylcholine Receptors Binding
Suspensions of membrane pellets containing 400-600 μg of protein were added to test tubes containing test compounds and [^3H]-cytisine (2 nM) in a final volume of 200 μl and incubated for 75 minutes in ice-cooled bath. The samples were isolated by vacuum filtration onto Whatman GF/B filters, which were prerinsed with 0.5% polyethylenimine just prior to sample filtration, using Brandel multi manifold cell harvester. The filters were rapidly washed with buffer solution (3×1 ml). The filters were counted in 3 ml of clearsol I (Nacalai Tesque Inc.).
The analyses of the experimental results were conducted by using the Accufit Competition Program (Beckman Ltd.).

[2] = target: T2, α1β1γδ subtype of nicotinic acetylcholine receptors (Rattus norvegicus, UniProt P25108); experiment: biochemical; type: binding; details: % of control binding remaining; for control % of [3H]-α-Bgt binding at 100 μM of test compound: 100 μM test compound; for control % of [3H]-α-Bgt binding at 1,000 μM of test compound: 1,000 μM test compound
T2 construct: The centrifugation at 100,000×G for 60 minutes at 4° C. yielded the rat muscle extract as supernatant
T2 sequence (P25108 21-457): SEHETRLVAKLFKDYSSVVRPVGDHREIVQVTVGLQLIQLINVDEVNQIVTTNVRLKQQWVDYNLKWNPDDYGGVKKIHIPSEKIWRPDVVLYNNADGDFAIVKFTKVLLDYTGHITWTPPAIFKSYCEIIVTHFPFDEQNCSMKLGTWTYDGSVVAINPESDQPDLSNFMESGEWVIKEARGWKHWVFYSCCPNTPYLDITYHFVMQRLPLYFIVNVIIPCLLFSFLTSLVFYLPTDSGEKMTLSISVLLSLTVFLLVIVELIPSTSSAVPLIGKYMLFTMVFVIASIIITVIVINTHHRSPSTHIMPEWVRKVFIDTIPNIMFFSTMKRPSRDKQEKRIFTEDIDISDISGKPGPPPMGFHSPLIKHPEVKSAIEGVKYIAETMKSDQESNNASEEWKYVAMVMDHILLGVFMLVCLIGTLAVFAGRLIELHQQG
T2 sequence (P25109 24-501, further chain): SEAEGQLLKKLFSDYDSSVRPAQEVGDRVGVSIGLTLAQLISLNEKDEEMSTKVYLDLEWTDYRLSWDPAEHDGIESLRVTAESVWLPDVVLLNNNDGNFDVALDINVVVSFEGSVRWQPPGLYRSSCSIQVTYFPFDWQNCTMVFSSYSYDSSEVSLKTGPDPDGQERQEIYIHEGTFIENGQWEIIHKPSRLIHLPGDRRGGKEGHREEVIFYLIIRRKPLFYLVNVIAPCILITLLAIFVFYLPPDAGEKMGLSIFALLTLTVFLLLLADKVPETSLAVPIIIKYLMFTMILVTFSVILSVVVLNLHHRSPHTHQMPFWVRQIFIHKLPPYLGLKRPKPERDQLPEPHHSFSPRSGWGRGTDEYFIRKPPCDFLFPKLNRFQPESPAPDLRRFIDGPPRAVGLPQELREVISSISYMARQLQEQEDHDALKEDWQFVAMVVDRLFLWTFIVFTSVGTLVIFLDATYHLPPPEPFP
T2 sequence (P25110 22-517, further chain): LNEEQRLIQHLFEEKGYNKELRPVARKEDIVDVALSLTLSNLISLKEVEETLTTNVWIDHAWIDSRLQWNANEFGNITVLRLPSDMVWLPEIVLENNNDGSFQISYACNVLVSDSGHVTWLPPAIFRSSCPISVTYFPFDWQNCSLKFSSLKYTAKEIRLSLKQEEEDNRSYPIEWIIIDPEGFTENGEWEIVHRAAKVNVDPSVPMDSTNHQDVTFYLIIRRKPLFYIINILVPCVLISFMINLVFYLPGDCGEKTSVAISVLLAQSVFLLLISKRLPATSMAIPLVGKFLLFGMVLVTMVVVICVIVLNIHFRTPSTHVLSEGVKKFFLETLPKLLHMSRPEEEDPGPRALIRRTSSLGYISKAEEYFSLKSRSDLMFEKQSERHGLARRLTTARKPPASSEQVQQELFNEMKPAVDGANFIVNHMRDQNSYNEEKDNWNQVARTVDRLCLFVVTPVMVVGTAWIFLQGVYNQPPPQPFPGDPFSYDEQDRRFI
Excerpt: as §1
Binding Assays at α1β1γδ Subtype of Nicotinic Acetylcholine Receptors
The affinity of the compounds of the present invention to α1β1γδ subtype of nicotinic acetylcholine receptors was measured by the following method, which was modified method described by Garcha H. S., Thomas P., Spivak C.
(1) Preparation of Rat Skeletal Muscles Containing α1β1γδ Subtype of Nicotinic Acetylcholine Receptors
The substantially same animals described in the Biological Experiment 1 were used.
The isolation of α1β1γδ subtype of nicotinic acetylcholine receptors was performed as follow. That is, rat posterior skeletal muscles were isolated just after sacrificed by decapitation, washed with ice-cooled saline solution and then frozen at −80° C. with liquid nitrogen and stored till using. After thawing the frozen muscles, tissue was homogenized (40% w/v) with buffer solution [2.5 mM of sodium phosphate buffer (pH:7.2), 90 mM of NaCl, 2 mM of KCl, 1 mM of EDTA, 2 mM of benzamidine, 0.1 mM of benzethonium chloride, 0.1 mM of PMSF, 0.01% of sodium azide] in Waring blender [Waring blender 34BL97; WARING PRODUCTS DIVISION DYNAMICS CORPORATION OF AMERICA) for 60 seconds. The homogenate were centrifuged under 20,000×G for 60 minutes at 4° C. The supernatant was separated and the resulting pellet was added to the same buffer (1.5 ml/g wet weight), and homogenized under the same conditions. Triton X100 (2% w/v) was added and the mixture was stirred for 3 hours at 4° C. The centrifugation at 100,000×G for 60 minutes at 4° C. yielded the rat muscle extract as supernatant. This was stored at 4° C. for up to 4 weeks, and used for binding assays at receptors.
(2) Experiments of α1β1γδ Subtype of Nicotinic Acetylcholine Receptors Binding
Receptors binding experiments were performed as follow. That is, the extract of rat muscle containing 600-900 μg of protein was added to test tubes containing test compounds and incubated for 15 minutes at 37° C. Then, to this mixture was added 1 nM of [^3H]-α-bungarotoxin (α-Bgt) and further incubated for 2 hours. The samples were isolated by vacuum filtration onto Whatman GF/B filters, which were prerinsed with 0.5% polyethylenimine just prior to sample filtration, using Brandel multi manifold cell harvester. The filters were rapidly rinsed with washing solution (10 mM of KH2PO4, 150 mM of NaCl, pH 7.2, room temperature) (5×1 ml). The filters were counted in 3 ml of clearsol I (Nacalai Tesque Inc.). The determination of nonspecific binding was incubated in the presence of 1 μM α-Bgt. […] In the receptor binding experiments, said buffer solution was added for adjusting the final concentration of BSA to be 0.05%.
The analyses of the experimental results were conducted by as described in the Biological Experiment 1.

Row | Structure (SMILES) | Ki [1] [nM] | control % of [3H]-α-Bgt binding at 100 μM of test compound [2] [%] | control % of [3H]-α-Bgt binding at 1,000 μM of test compound [2] [%] | control % of [3H]-cytisine binding at 1 μM of test compound [1] [%] | control % of [3H]-cytisine binding at 10 μM of test compound [1] [%]
1 | Clc1ccc(C/N=C2\NCCCN2Cc2ccc(Cl)nc2)cn1 [Compound 3, 1-(6-chloro-3-pyridyl)methyl-[(6-chloro-3-pyridyl)methyl]imino-1,2,3,4,5,6-hexahydropyrimidine] | 739 | 77 | 76 | – | –
2 | N=C1N(Cc2ccc(Cl)nc2)CCCN1Cc1ccc(Cl)nc1 [Compound 4, 1,3-bis[(6-chloro-3-pyridyl)methyl]-2-imino-1,2,3,4,5,6-hexahydropyrimidine] | 475 | 49 | 30 | – | –
3 | Clc1ccc(C/N=c2\ncccn2Cc2ccc(Cl)nc2)cn1 [Compound 5, 1-(6-chloro-3-pyridyl)methyl-2-[(6-chloro-3-pyridyl)methyl]imino-1,2-dihydropyrimidine] | – | – | – | 92 | 23
4 | Clc1cc/c(=N\Cc2ccc(Cl)nc2)n(Cc2ccc(Cl)nc2)c1 [Compound 6, 5-chloro-1-(6-chloro-3-pyridyl)methyl-2-[(6-chloro-3-pyridyl)methyl]imino-1,2-dihydropyridine] | – | – | – | 94 | 45
5 | CC1CCC/C(=N\Cc2ccc(Cl)nc2)N1Cc1ccc(Cl)nc1 (stereo not shown) [Compound 7, 1-(6-chloro-3-pyridyl)methyl-2-[(6-chloro-3-pyridyl)methyl]imino-6-methylpiperidine] | – | 85 | 52 | 85 | 75
6 | Cc1cs/c(=N\Cc2ccc(Cl)nc2)n1Cc1ccc(Cl)nc1 [Compound 9, 3-(6-Chloro-3-pyridyl)methyl-2-[(6-chloro-3-pyridyl)methyl]imino-4-methyl-2,3-dihydrothiazole] | 110 | 78 | 40 | – | –
7 | N=c1n(Cc2ccc(Cl)nc2)ccn1Cc1ccc(Cl)nc1 [Compound 10, 1,3-bis[(6-chloro-3-pyridyl)methyl]-2-imino-2,3-dihydroimidazole] | – | – | – | 89 | 46
8 | C/N=C1\SCCN1Cc1ccc(Cl)nc1 [Compound 11, 3-(6-chloro-3-pyridyl)methyl-2-methylimino-thiazolidine] | – | – | – | 93 | 18
9 | Clc1ccc(Cn2ccs/c2=N\c2ccccc2)cn1 [Compound 12, 3-(6-Chloro-3-pyridyl)methyl-2-phenylimino-2,3-dihydrothiazole] | – | 86 | 48 | 109 | 84
10 | Clc1ccc(CN2CCS/C2=N\Cc2ccccc2)cn1 [Compound 14, 2-Benzylimino-3-(6-chloro-3-pyridyl)methylthiazolidine] | 123 | 64 | 20 | – | –
